Consider 21 molecules from patent US9840478B2 (MERCK SHARP & DOHME CORP., priority 2013, dated 2017).

The subject of the first test is HIV-1 (H9IIIB strain). Description: Cell-based HIV infection assay using a reporter (Cell-Based), MT4-GFP cells. The note with it: Human immunodeficiency virus 1, MT4-GFP cells infected with HIV-1 H9IIIB; 50% normal human serum; mean of at least two independent experiments; read-out: Cell-based IP. How it is done: Cell-Based HIV Infection Assay Using a Reporter (“Cell-Based”):
MT4-GFP cells contain a stably integrated HIV long terminal repeat promoter directing the transcription of green fluorescent protein (GFP). When HIV infects the cell, GFP is produced and the cell becomes green. MT4-GFP cells (250,000 cells/ml) were bulk-infected with HIV-1 (H9IIIB strain) at low multiplicity of infection (MOI) in RPMI media, supplemented with 10% FBS for 24 hours. Cells were then washed once in RPMI plus 10% FBS and resuspended in RPMI plus 50% normal human serum (NHS). Test compounds were serial-diluted in DMSO using an ECHO liquid dispenser. A control well included a combination of three HIV drugs (an inhibitor of HIV protease, integrase strand transfer and a non-nucleoside reverse transcriptase inhibitor; triple drug). The infected MT4-GFP cells were added to a 384-well poly-D-lysine coated black plate with clear bottom in which the diluted test compounds were placed. The cells were seeded in the plate at 8,000 cells per well and the final DMSO concentration was 0.4%. Infected cells were quantified at both 24 and 48 hours post incubation using an Acumen eX3 plate reader. Viral reproductive ratio (R0) was determined using the number of infected cells at 48 hours divided by the number of infected cells at 24 hours. Percent viral growth inhibition was calculated by [1−(R−Rtripledrug)/(RDMSO−Rtripledrug)]*100. Compound potency IP or IC50 was determined with use of a 4-parameter dose response curve analysis.
In the case of `COc1ccc(S(=O)(=O)N2[C@@H](CCc3c(F)cccc3NC(=O)[C@@H](N)[C@@H](c3cccc(Cl)c3)C(C)C)CNC[C@@H]2C)cc1` [Example 249, (βR)-3-chloro-N-[3-fluoro-2-(2-{(2S,6S)-1-[(4-methoxyphenyl)sulfonyl]-6-methylpiperazin-2-yl}ethyl)phenyl]-β-(1-methylethyl)-L-phenylalaninamide], the IC50 is 53 nM.
On the same count and under the same terms, under `C[C@H]1CNC[C@H](CCc2c(F)cccc2NC(=O)[C@@H](N)[C@@H](c2ccc(Cl)cc2)C2CCOCC2)N1S(C)(=O)=O` [Example 121, (βR)-4-chloro-N-(3-fluoro-2-{2-[(2S,6S)-6-methyl-1-(methylsulfonyl)piperazin-2-yl]ethyl}phenyl)-β-(tetrahydro-2H-pyran-4-yl)-L-phenylalaninamide] stands 72 nM; under `N[C@H](C(=O)Nc1cccc(F)c1CC[C@H]1CNCC2(CC2)N1S(=O)(=O)c1ccccc1)C(c1ccc(F)cc1)c1ccc(F)cc1` [Example 366, (S)-2-amino-N-(3-fluoro-2-(2-((S)-4-(phenylsulfonyl)-4,7-diazaspiro[2.5]octan-5-yl)ethyl)phenyl)-3,3-bis(4-fluorophenyl)propanamide], 13 nM.
Same read-out and setting: the figure for `O=C(C[C@@H](c1ccc(F)cc1)c1cc(F)cc(F)c1)Nc1cncc(F)c1CC[C@H]1CNCCN1S(=O)(=O)CC(F)(F)F` [Example 315, (3S)-3-(3,5-difluorophenyl)-3-(4-fluorophenyl)-N-[5-fluoro-4-(2-{(2S)-1-[(2,2,2-trifluoroethyl)sulfonyl]piperazin-2-yl}ethyl)pyridin-3-yl]propanamide] is 1900 nM.
Turning to `N[C@H](C(=O)Nc1cccc(F)c1CC[C@H]1CNCCN1S(=O)(=O)c1ccccc1)[C@@H](c1ccc(Cl)cc1)c1cncc(F)c1` [Example 44, (βS)-4-chloro-N-(3-fluoro-2-{2-[(2S)-1-(phenylsulfonyl)piperazin-2-yl]ethyl}phenyl)-β-(5-fluoropyridin-3-yl)-L-phenylalaninamide], the IC50 stood at 15 nM.
The same measure, in the same setting: under `COC(=O)N[C@H](C(=O)Nc1cccc(F)c1CC[C@H]1CNCCN1S(=O)(=O)c1ccccc1)[C@@H](c1ccc(Cl)cc1)c1cc(F)cc(F)c1` [Example 59, (βS)-4-chloro-β-(3,5-difluorophenyl)-N-(3-fluoro-2-{2-[(2S)-1-(phenylsulfonyl)piperazin-2-yl]ethyl}phenyl)-Nα-(methoxycarbonyl)-L-phenylalaninamide] stands 29 nM.
In the case of `COC(=O)N[C@H](C(=O)Nc1cccc(F)c1CC[C@H]1CNCCN1S(=O)(=O)c1ccccc1)[C@@H](c1ccc(Cl)cc1)c1cccc(OC(F)(F)F)c1` [Example 58, (βS)-4-chloro-N-(3-fluoro-2-{2-[(2S)-1-(phenylsulfonyl)piperazin-2-yl]ethyl}phenyl)-Nα-(methoxycarbonyl)-β-[3-(trifluoromethoxy)phenyl]-L-phenylalaninamide], the IC50 worked out at 42 nM.
As for `COC(=O)N[C@H](C(=O)Nc1cncc(F)c1CC[C@H]1CNC[C@@H](C)N1S(=O)(=O)c1ccccc1)[C@@H](c1ccc(Cl)cc1)C1CCOCC1` [Example 279, (βR)-4-chloro-N-(5-fluoro-4-{2-[(2S,6R)-6-methyl-1-(phenylsulfonyl)piperazin-2-yl]ethyl}pyridin-3-yl)-Nα-(methoxycarbonyl)-β-(tetrahydro-2H-pyran-4-yl)-L-phenylalaninamide], the IC50 came out at 16 nM.
Still for that read-out and setting: under `COc1ccc(S(=O)(=O)N2[C@@H](CCc3c(F)cccc3NC(=O)[C@@H](N)[C@@H](c3ccc(F)cc3)c3cc(F)cc(F)c3)CNC[C@@H]2C)cc1` [Example 251, (βS)-β-(3,5-difluorophenyl)-4-fluoro-N-[3-fluoro-2-(2-{(2S,6S)-1-[(4-methoxyphenyl)sulfonyl]-6-methylpiperazin-2-yl}ethyl)phenyl]-L-phenylalaninamide] stands 4.1 nM; under `COC(=O)N[C@H](C(=O)Nc1cccc(F)c1CC[C@H]1CNC[C@@H](C)N1S(=O)(=O)c1ccccc1)[C@@H](c1ccc(Cl)cc1)C(C)C` [Example 112, (βR)-4-chloro-N-(3-fluoro-2-{2-[(2S,6R)-6-methyl-1-(phenylsulfonyl)piperazin-2-yl]ethyl}phenyl)-Nα-(methoxycarbonyl)-β-(1-methylethyl)-L-phenylalaninamide], 19 nM; under `N[C@H](C(=O)Nc1cccc(F)c1CC[C@@H]1CNCCN1S(=O)(=O)c1ccccc1)[C@@H](c1ccc(Cl)c(F)c1)C1CCOCC1` [Example 38, (βR)-4-chloro-3-fluoro-N-(3-fluoro-2-{2-[(2R)-1-(phenylsulfonyl)piperazin-2-yl]ethyl}phenyl)-β-(tetrahydro-2H-pyran-4-yl)-L-phenylalaninamide], 890 nM.
On the same count and under the same terms, under `C[C@H]1CNC[C@H](CCc2c(F)cccc2NC(=O)[C@@H](N)[C@H](c2cccc(F)c2)c2cccc(Cl)c2)N1S(=O)(=O)c1ccccc1` [Example 154, (βR)-3-chloro-N-(3-fluoro-2-{2-[(2S,6S)-6-methyl-1-(phenylsulfonyl)piperazin-2-yl]ethyl}phenyl)-β-(3-fluorophenyl)-L-phenylalaninamide] stands 65 nM.
The same measure, in the same setting: under `C[C@H]1CNC[C@H](CCc2c(F)cccc2NC(=O)[C@@H](N)C2(c3cc(F)cc(F)c3)CCOCC2)N1S(=O)(=O)c1ccccc1` [Example 278, (2S)-2-amino-2-[4-(3,5-difluorophenyl)tetrahydro-hydro-2H-pyran-4-yl]-N-(3-fluoro-2-{2-[(2S,6S)-6-methyl-1-(phenylsulfonyl)piperazin-2-yl]ethyl}phenyl) ethanamide] stands 140 nM; under `COC(=O)N[C@H](C(=O)Nc1cccc(F)c1CC[C@H]1CNC[C@H](C)N1S(=O)(=O)c1ccc(OC)cc1)[C@@H](c1cccc(Cl)c1)C(C)C` [Example 250, (βR)-3-chloro-N-[3-fluoro-2-(2-{(2S,6S)-1-[(4-methoxyphenyl)sulfonyl]-6-methylpiperazin-2-yl}ethyl)phenyl]-Nα-(methoxycarbonyl)-β-(1-methylethyl)-L-phenylalaninamide], 34 nM; under `C[C@@H]1C[C@](c2ccc(Cl)cc2)([C@H](N)C(=O)Nc2cccc(F)c2CC[C@H]2CNC[C@H](C)N2S(=O)(=O)c2ccccc2)C[C@H](C)O1` [Example 300, (S)-2-amino-2-((2R,4r,6S)-4-(4-chlorophenyl)-2,6-dimethyltetrahydro-2H-pyran-4-yl)-N-(3-fluoro-2-(2-((2S,6S)-6-methyl-1-(phenylsulfonyl)piperazin-2-yl)ethyl)phenyl)acetamide], 98 nM.
Take `N[C@H](C(=O)Nc1cncc(F)c1CC[C@H]1CNCCN1S(=O)(=O)c1ccccc1)[C@@H](c1ccc(Cl)cc1)c1cccc(F)c1` [Example 35, (βS)-4-chloro-β-(3-fluorophenyl)-N-(5-fluoro-4-{2-[(2S)-1-(phenylsulfonyl)piperazin-2-yl]ethyl}pyridin-3-yl)-L-phenylalaninamide]: the IC50 came out at 13 nM.
Same read-out and setting: the figure for `COC(=O)N[C@H](C(=O)Nc1cccc(F)c1CC[C@H]1CNC[C@@H](C)N1S(=O)(=O)c1ccccc1)[C@@H](c1ccc(Cl)cc1)c1ccc(OC)nc1` [Example 120, (βS)-4-chloro-N-(3-fluoro-2-{2-[(2S,6R)-6-methyl-1-(phenylsulfonyl)piperazin-2-yl]ethyl}phenyl)-Nα-(methoxycarbonyl)-β-(6-methoxypyridin-3-yl)-L-phenylalaninamide] is 19 nM; for `COC(=O)N[C@H](C(=O)Nc1cccc(F)c1CC[C@H]1CNC[C@@H](C)N1S(=O)(=O)c1ccccc1)[C@@H](c1ccc(F)cc1)C1CCOCC1` [Example 103, (βR)-4-fluoro-N-(3-fluoro-2-{2-[(2S,6R)-6-methyl-1-(phenylsulfonyl)piperazin-2-yl]ethyl}phenyl)-Nα-(methoxycarbonyl)-β-(tetrahydro-2H-pyran-4-yl)-L-phenylalaninamide] it is 8.6 nM; for `COC(=O)N[C@H](C(=O)Nc1cccc(F)c1CC[C@H]1CNC[C@@H](C)N1S(=O)(=O)c1ccc(F)cc1)[C@@H](c1ccc(Cl)cc1)C1CCOCC1` [Example 18, Methyl ((1R,2S)-1-(4-chlorophenyl)-3-((3-fluoro-2-(2-((2S,6R)-1-((4-fluorophenyl)sulfonyl)-6-methylpiperazin-2-yl)ethyl)phenyl)amino)-3-oxo-1-(tetrahydro-2H-pyran-4-yl)propan-2-yl)carbamate] it is 8.6 nM.
As for `O=C(C[C@@H](c1ccc(F)cc1)c1cc(F)cc(F)c1)Nc1cncc(F)c1CC[C@H]1CNCCN1S(=O)(=O)N1CCC(F)CC1` [Example 331, (3S)-3-(3,5-difluorophenyl)-N-[5-fluoro-4-(2-{(2S)-1-[(4-fluoropiperidin-1-yl)sulfonyl]piperazin-2-yl}ethyl)pyridin-3-yl]-3-(4-fluorophenyl)propanamide], the IC50 came out at 19 nM.

The test is the same for the next values; noted with them: MT4-GFP cells infected with HIV-1 H9IIIB; 50% normal human serum; mean of at least two independent experiments; read-out: Cell-based IP.
Consider `COC(=O)N[C@H](C(=O)Nc1cccc(F)c1CC[C@H]1CNC[C@H](C)N1S(C)(=O)=O)[C@@H](c1ccc(F)cc1)c1cc(F)cc(F)c1` [Example 259, (βS)-β-(3,5-difluorophenyl)-4-fluoro-N-(3-fluoro-2-{2-[(2S,6S)-6-methyl-1-(methylsulfonyl)piperazin-2-yl]ethyl}phenyl)-Nα-(methoxycarbonyl)-L-phenylalaninamide], for which the IC50 amounted to 18 nM.
